Results: patent publication US20170216240A1, “METHODS FOR MODULATING IKS CHANNEL ACTIVITY” (UNIVERSITY OF MIAMI, priority 2014, published 2017)
“Also recorded” adds a separate entry of the source.

Test system: isolated embryonic rat cardiomyocytes
Assay: Spontaneous action potentials in rat cardiomyocytes, whole-cell patch clamp
Type: cell-based
Settings: for effect on arrhythmic firing induced by Chromanol 293B: 30 μM N-AT in the presence of 5 μM Chromanol 293B
Experimental: On gestation day (GD) 16 of pregnancy time-mated Sprague Dawley rats (Taconic, Denmark) were sacrificed in a CO2 chamber followed by cervical dislocation. Cell preparation of cardiomyocytes and culturing on glass coverslips were made (Danielsson, C. et al. Cardiovasc Res 97, 23-32 (2013)). Spontaneous action potentials were measured using the patch-clamp technique, whole cell configuration, 1-3 days after culturing. An Axopatch 200B patch-clamp amplifier, Digidata 1140A converter (Molecular Devices) and pClamp software (Molecular Devices) were used to acquire data. The extracellular solution contained (in mM): 140 NaCl, 5.4 KCl, 1 MgCl2, 1.8 CaCl2, 10 Glucose and 10 HEPES (pH 7.4, adjusted with NaOH). The intracellular solution contained (in mM): 130 K-gluconate, 9 KCl, 8 NaCl, 10 EGTA, 1 MgCl2, 10 HEPES and 3 MgATP (pH 7.3, adjusted with KOH). The solutions were perfused through the recording chamber (flow: 0.5 mL/min). All chemicals were purchased from Sigma-Aldrich. […] All experiments were carried out at 35° C. To analyze action potential characteristics a stable 60-seconds recording was selected before and after application of the test solution. The average data were then calculated for the complete trace in Clampfit 10 (Molecular Devices). Liquid junction potential was not adjusted for.
Average values are expressed as mean±SEM. Mean values for shifts in voltage dependence were analyzed using a two-tailed one samplet-test where mean values were compared with a hypothetical value of 0 or where mean values were compared to each other. Effects of N-AT on action potential peak amplitude and RMP in cardiomyocytes were analyzed using paired two-tailed t-test. Effects of N-AT on the relative change of APD and RR-interval were analyzed using two-tailed one samplet-test where mean values were compared with a hypothetical value of 1. P<0.05 is considered as statistically significant.
The effect of N-arachidonoyl taurine on isolated embryonic rat cardiomyocytes was tested. A sub-saturating concentration of the IKs channel blocker Chromanol 293B, which is known to induce arrhythmia (Aiba, T. et al. J Am Coll Cardiol 45, 300-307 (2005)), was applied to the cardiomyocytes. In general, two types of effects are seen upon Chromanol 293B application: (1) arrhythmic firing (FIG. 8A-B) or (2) a slowing of the frequency of spontaneous action potential firing (FIG. 8D-E). The different effects are most likely due to different subtypes of cardiomyocytes. […] The anti-arrhythmic effect of N-arachidonoyl taurine was associated with a shortening of the cardiomyocyte action potential duration and an increase in the frequency of action potential firing (FIG. 8G-I, Table 2). 30 μM N-arachidonoyl taurine had no effect on the resting membrane potential (Table 2) but decreased the action potential peak amplitude by −9±1 mV (Table 2).
Cardiomyocytes were isolated from rat heart and the spontaneous electrical activity in the cardiomyocytes was measured using the current clamp mode of patch clamp. […] Further, arrhythmia was induced in these cardiomyocytes by the IKs specific drug chromanol. In the presence of 5 μM chromanol, there are clearly additional action potentials caused by early after depolarizations (EADs) (FIG. 9D). EADs are known to accompany Long QT and could lead to ventricular fibrillation and cardiac sudden death in the intact heart. […] N-AT and chromanol are known to bind to different parts of the IKs channels (chromanol is a pore blocker, whereas N-AT is binding to the voltage sensor), so this effect of N-AT is not just a competition with chromanol to the same binding site. Rather, N-AT increases the currents by attracting the voltage sensor, whereas chromanol is known to block the currents by binding to the pore.

[1] = 30 μM N-AT vs control, listed as N-arachidonoyl taurine

CCCCC/C=C\C/C=C\C/C=C\C/C=C\CCCC(=O)NCCS(=O)(=O)O [N-AT, N-arachidonoyl taurine]
APD30, Mean ± SEM (30 μM N-AT): 211 ± 37 ms
APD50, Mean ± SEM (30 μM N-AT): 279 ± 47 ms
APD70, Mean ± SEM (30 μM N-AT): 336 ± 50 ms
Amplpeak (peak action potential amplitude), Mean ± SEM (30 μM N-AT): 32 ± 2 mV
RMP (resting membrane potential), Mean ± SEM (30 μM N-AT): −56 ± 2 mV
RR-interval, Mean ± SEM (30 μM N-AT): 2075 ± 197 ms
length of the ventricular action potential / action potential duration (30 μM N-AT): reduced the length of the ventricular action potential; also recorded: shortened the cardiomyocyte action potential duration
effect on arrhythmic firing induced by Chromanol 293B: restores rhythmic firing; also recorded: reversed the arrhythmic behavior
effect on arrhythmic firing induced by Chromanol 293B (listed as N-arachidonoyl taurine): reversed the effect
early after depolarizations (EADs) (30 μM N-AT in the presence of 5 μM chromanol): removed these EADs
APD30, Change (relative change) (30 μM N-AT vs control): 0.81 ± 0.04
APD50, Change (relative change) (30 μM N-AT vs control): 0.83 ± 0.03
APD70, Change (relative change) (30 μM N-AT vs control): 0.84 ± 0.03
Amplpeak, Change (30 μM N-AT vs control): −9 ± 1 mV
RR-interval, Change (relative change) (30 μM N-AT vs control): 0.74 ± 0.05
Amplpeak, Change [1]: −9±1 mV
RMP, Change [1]: no effect
